Data from ChEMBL document CHEMBL5036317, “Identification of Unique Quinazolone Thiazoles as Novel Structural Scaffolds for Potential Gram-Negative Bacterial Conquerors” (J Med Chem, 2021).
≈ marks a conversion by molar mass, not a printed value.

Assays:
[1] = test system: Enterococcus faecalis; assay: Antibacterial activity against Enterococcus faecalis assessed as inhibition of bacterial growth measured after 24 hrs by two-fold serial dilution method; format: functional
[2] = test system: Pseudomonas aeruginosa; assay: Antibacterial activity against Pseudomonas aeruginosa assessed as inhibition of bacterial growth measured after 24 hrs by two-fold serial dilution method; format: functional
[3] = test system: Escherichia coli; assay: Antibacterial activity against Escherichia coli ATCC 25922 assessed as inhibition of bacterial growth measured after 24 hrs by two-fold serial dilution method; format: functional
[4] = test system: Staphylococcus aureus; assay: Antibacterial activity against Staphylococcus aureus ATCC 29213 assessed as inhibition of bacterial growth measured after 24 hrs by two-fold serial dilution method; format: functional
[5] = test system: Pseudomonas aeruginosa; assay: Antibacterial activity against Pseudomonas aeruginosa ATCC 27853 assessed as inhibition of bacterial growth measured after 24 hrs by two-fold serial dilution method; format: functional
[6] = test system: Acinetobacter baumannii; assay: Antibacterial activity against Acinetobacter baumanii assessed as inhibition of bacterial growth measured after 24 hrs by two-fold serial dilution method; format: functional
[7] = test system: Staphylococcus aureus; assay: Antibacterial activity against Staphylococcus aureus ATCC 25923 assessed as inhibition of bacterial growth measured after 24 hrs by two-fold serial dilution method; format: functional
[8] = test system: Klebsiella pneumoniae; assay: Antibacterial activity against Klebsiella pneumoniae assessed as inhibition of bacterial growth measured after 24 hrs by two-fold serial dilution method; format: functional
[9] = Haemolytic activity in human erythrocytes incubated for 2 hrs; format: ADME, cell-based, Erythrocyte
[10] = test system: Escherichia coli; assay: Antibacterial activity against Escherichia coli assessed as inhibition of bacterial growth measured after 24 hrs by two-fold serial dilution method; format: functional
[11] = test system: Staphylococcus aureus; assay: Antibacterial activity against Staphylococcus aureus assessed as inhibition of bacterial growth measured after 24 hrs by two-fold serial dilution method; format: functional
[12] = test system: Staphylococcus aureus; assay: Antibacterial activity against methicillin-resistant Staphylococcus aureus assessed as inhibition of bacterial growth measured after 24 hrs by two-fold serial dilution method; format: functional

SMILES | MIC [1] | MIC [2] | MIC [3] | MIC [4] | MIC [5] | MIC [6] | MIC [7] | MIC [8] | HC50 at 2 h [9] | MIC [10] | MIC [11] | MIC [12]
O=C(/C(=C/c1ccco1)n1cnc2cc(Cl)ccc2c1=O)c1nccs1 | 8 µg/mL (≈ 20.8 µM) | 64 µg/mL (≈ 167 µM) | 16 µg/mL (≈ 41.7 µM) | 8 µg/mL (≈ 20.8 µM) | 32 µg/mL (≈ 83.4 µM) | 16 µg/mL (≈ 41.7 µM) | 8 µg/mL (≈ 20.8 µM) | 64 µg/mL (≈ 167 µM) | > 250 µg/mL | 128 µg/mL (≈ 333 µM) | 64 µg/mL (≈ 167 µM) | 32 µg/mL (≈ 83.4 µM)
O=C(/C(=C/c1ccc(C(F)(F)F)cc1)n1cnc2c(Cl)cc(Cl)cc2c1=O)c1nccs1 | 64 µg/mL (≈ 129 µM) | 8 µg/mL (≈ 16.1 µM) | 4 µg/mL (≈ 8.06 µM) | 8 µg/mL (≈ 16.1 µM) | 1 µg/mL (≈ 2.01 µM) | 1 µg/mL (≈ 2.01 µM) | 8 µg/mL (≈ 16.1 µM) | 1 µg/mL (≈ 2.01 µM) | > 250 µg/mL | 4 µg/mL (≈ 8.06 µM) | 128 µg/mL (≈ 258 µM) | 4 µg/mL (≈ 8.06 µM)
Cc1ccc(/C=C(/C(=O)c2nccs2)n2cnc3cc(Cl)ccc3c2=O)c(C)c1 | 512 µg/mL (≈ 1210 µM) | 64 µg/mL (≈ 152 µM) | 64 µg/mL (≈ 152 µM) | 4 µg/mL (≈ 9.48 µM) | 64 µg/mL (≈ 152 µM) | 128 µg/mL (≈ 303 µM) | 512 µg/mL (≈ 1210 µM) | 512 µg/mL (≈ 1210 µM) | 203 µg/mL | 512 µg/mL (≈ 1210 µM) | 512 µg/mL (≈ 1210 µM) | 512 µg/mL (≈ 1210 µM)
O=C(/C(=C/c1nccs1)n1cnc2cc(Cl)ccc2c1=O)c1nccs1 | 1 µg/mL (≈ 2.49 µM) | 16 µg/mL (≈ 39.9 µM) | 4 µg/mL (≈ 9.98 µM) | 2 µg/mL (≈ 4.99 µM) | 4 µg/mL (≈ 9.98 µM) | 16 µg/mL (≈ 39.9 µM) | 2 µg/mL (≈ 4.99 µM) | 4 µg/mL (≈ 9.98 µM) | 115 µg/mL | 16 µg/mL (≈ 39.9 µM) | 2 µg/mL (≈ 4.99 µM) | 4 µg/mL (≈ 9.98 µM)
O=C(/C(=C/c1ccc(Cl)cc1Cl)n1cnc2cc(Cl)ccc2c1=O)c1nccs1 | 8 µg/mL (≈ 17.3 µM) | 8 µg/mL (≈ 17.3 µM) | 2 µg/mL (≈ 4.32 µM) | 2 µg/mL (≈ 4.32 µM) | 1 µg/mL (≈ 2.16 µM) | 16 µg/mL (≈ 34.6 µM) | 1 µg/mL (≈ 2.16 µM) | 1 µg/mL (≈ 2.16 µM) | 176 µg/mL | 2 µg/mL (≈ 4.32 µM) | 32 µg/mL (≈ 69.2 µM) | 8 µg/mL (≈ 17.3 µM)
CN(C)/C=C(/C(=O)c1nccs1)n1cnc2cc(Cl)ccc2c1=O | 128 µg/mL (≈ 355 µM) | 16 µg/mL (≈ 44.3 µM) | 16 µg/mL (≈ 44.3 µM) | 512 µg/mL (≈ 1420 µM) | 16 µg/mL (≈ 44.3 µM) | 128 µg/mL (≈ 355 µM) | 256 µg/mL (≈ 709 µM) | 128 µg/mL (≈ 355 µM) | 204 µg/mL | 512 µg/mL (≈ 1420 µM) | 512 µg/mL (≈ 1420 µM) | 512 µg/mL (≈ 1420 µM)
O=C(/C(=C/c1ccc(Cl)cc1)n1cnc2cc(Cl)ccc2c1=O)c1nccs1 | 4 µg/mL (≈ 9.34 µM) | 2 µg/mL (≈ 4.67 µM) | 2 µg/mL (≈ 4.67 µM) | 4 µg/mL (≈ 9.34 µM) | 1 µg/mL (≈ 2.33 µM) | 256 µg/mL (≈ 598 µM) | 4 µg/mL (≈ 9.34 µM) | 64 µg/mL (≈ 149 µM) | > 250 µg/mL | 16 µg/mL (≈ 37.4 µM) | 16 µg/mL (≈ 37.4 µM) | 8 µg/mL (≈ 18.7 µM)
O=C(/C(=C/c1ccc(F)cc1F)n1cnc2cc(Cl)ccc2c1=O)c1nccs1 | 8 µg/mL (≈ 18.6 µM) | 8 µg/mL (≈ 18.6 µM) | 2 µg/mL (≈ 4.65 µM) | 8 µg/mL (≈ 18.6 µM) | 4 µg/mL (≈ 9.31 µM) | 2 µg/mL (≈ 4.65 µM) | 2 µg/mL (≈ 4.65 µM) | 8 µg/mL (≈ 18.6 µM) | 203 µg/mL | 8 µg/mL (≈ 18.6 µM) | 8 µg/mL (≈ 18.6 µM) | 8 µg/mL (≈ 18.6 µM)
N#Cc1ccc(/C=C(/C(=O)c2nccs2)n2cnc3cc(Cl)ccc3c2=O)cc1 | 1 µg/mL (≈ 2.39 µM) | 2 µg/mL (≈ 4.77 µM) | 4 µg/mL (≈ 9.55 µM) | 1 µg/mL (≈ 2.39 µM) | 2 µg/mL (≈ 4.77 µM) | 512 µg/mL (≈ 1220 µM) | 1 µg/mL (≈ 2.39 µM) | 8 µg/mL (≈ 19.1 µM) | > 250 µg/mL | 16 µg/mL (≈ 38.2 µM) | 32 µg/mL (≈ 76.4 µM) | 4 µg/mL (≈ 9.55 µM)
O=C(/C(=C/c1ncc[nH]1)n1cnc2cc(Cl)ccc2c1=O)c1nccs1 | 512 µg/mL (≈ 1330 µM) | 16 µg/mL (≈ 41.7 µM) | 64 µg/mL (≈ 167 µM) | 512 µg/mL (≈ 1330 µM) | 16 µg/mL (≈ 41.7 µM) | 512 µg/mL (≈ 1330 µM) | 512 µg/mL (≈ 1330 µM) | 64 µg/mL (≈ 167 µM) | > 250 µg/mL | 256 µg/mL (≈ 667 µM) | 512 µg/mL (≈ 1330 µM) | 512 µg/mL (≈ 1330 µM)
O=C(/C(=C/c1cccs1)n1cnc2cc(Cl)ccc2c1=O)c1nccs1 | 512 µg/mL (≈ 1280 µM) | 64 µg/mL (≈ 160 µM) | 32 µg/mL (≈ 80 µM) | 16 µg/mL (≈ 40 µM) | 64 µg/mL (≈ 160 µM) | 512 µg/mL (≈ 1280 µM) | 16 µg/mL (≈ 40 µM) | 32 µg/mL (≈ 80 µM) | 211 µg/mL | 512 µg/mL (≈ 1280 µM) | 16 µg/mL (≈ 40 µM) | 512 µg/mL (≈ 1280 µM)
O=C(/C(=C/c1ccc2ccccc2c1)n1cnc2cc(Cl)ccc2c1=O)c1nccs1 | 16 µg/mL (≈ 36 µM) | 4 µg/mL (≈ 9.01 µM) | 4 µg/mL (≈ 9.01 µM) | 16 µg/mL (≈ 36 µM) | 4 µg/mL (≈ 9.01 µM) | 16 µg/mL (≈ 36 µM) | 4 µg/mL (≈ 9.01 µM) | 32 µg/mL (≈ 72.1 µM) | 192 µg/mL | 32 µg/mL (≈ 72.1 µM) | 4 µg/mL (≈ 9.01 µM) | 4 µg/mL (≈ 9.01 µM)
